Measured values reported in publication PMC10387993, “New pyrimidine-N-β-D-glucosides: synthesis, biological evaluation, and molecular docking investigations” (Turkish Journal of Chemistry, 2023).
Converted amounts (≈) assume the structure as drawn. Like-named read-outs stand apart in the source and are kept apart here.

Experiments:
Type in all cases: cell-based
A549 = assay: cells; settings: Homo sapiens; for LC50 (concentration causing 50% net cell loss): A549, read-out: LC50; for GI50 / IC50 / IC (total growth inhibition): A549, MTT; for IC50: read-out: IC50; for IC (total growth inhibition): read-out: TGI
Method: (§1) The cell lines were cultured in a cell medium (Dulbecco’s modified eagle’s or RPMI 1640) enriched with 10% (v/v) fetal bovine serum and 2% (v/v) Penicillin-Streptomycin (10,000 U/mL). First, old medium was removed out of the flask when the cells reached approximately 80% confluence. Next, cells were taken from the flasks surface using trypsin-EDTA solution and then subjected to centrifugation. Following, the cell pellet was suspended with fresh media and was inoculated into wells.
(§2) A cell suspension containing approximately 1 × 10^4 cells in 100 μL was seeded into the wells of 96-well culture plates. […]. The final volume of the wells was set to 200 μL by medium. Cell proliferation assay was evaluated by MTT (yellow tetrazolium MTT (3-(4,5-dimethylthiazolyl-2)-2,5-diphenyltetrazolium bromide) methods. Briefly, an MTT stock solution (5 mg of MTT/mL of distilled water) was filtered and kept at −20 °C until use. The cells were exposed to an MTT reagent (consisting of one parts of MTT stock solutions and nine parts of fresh RPMI 1640 without phenol red) for 4 h to form MTT formazan dye followed by the dye dissolved in DMSO with Sorenson’s buffer for 30 min at room temperature and then the plate was measured at 560 nm, with 690 nm as a reference interval, using a microplate reader. Each experiment was repeated at least three times for each cell line.
(§3) IC50 value is a concentration that inhibits half of the cells in vitro. The half maximal inhibitory concentration (IC50) of the test and control compounds was calculated using XLfit5 or excel spreadsheet and represent in μM at 95% confidence intervals. The proliferation assay results were expressed as the percent inhibition according to the following formula: % Inhibition = [1 - (Absorbance of Treatments /Absorbance of DMSO) × 100]. Three dose response parameters (GI50, TGI, LC50) were calculated according to the following formulas using the absorbance measurements of time zero (Tz), control growth (C), and test growth in the presence of drug (Ti). Growth inhibition of 50% (GI50) was calculated from [(Ti-Tz)/(C-Tz)] × 100 = 50, which is the drug concentration resulting in a 50% reduction in the net growth increase in control cells during the drug incubation. The drug concentration resulting in total growth inhibition (TGI) was calculated from Ti = Tz. The LC50 indicating a net loss of cells following treatment was calculated from [(Ti-Tz)/Tz] × 100 = −50.

HeLa = assay: cells; settings: Homo sapiens; for GI50 / IC50 / IC (total growth inhibition): MTT; for IC50: read-out: IC50; for IC (total growth inhibition): read-out: TGI; for LC50 (concentration causing 50% net cell loss): read-out: LC50
Method: as §1, §2, §3

in vitro = settings: human, LC50
Method: as §1, §2, §3

normal FL cells = assay: cells; settings: for GI50 / IC50 / IC (total growth inhibition): FL normal cells, MTT; for IC50: read-out: IC50; for IC (total growth inhibition): read-out: TGI
Method: as §1, §2, §3

[1] = LDH cytotoxic activity assay, HeLa; settings: human, HeLa cells
Method: as §1
(§4) Approximately 5 × 10^3 cells in 100 μL were placed into 96-well plates as triplicates and treated with 25, 50, 75, and 100 μg/mL concentrations of test compounds at 37 °C with 5% CO2 for 24 h. LDH activity was obtained by determining absorbance at 492–630 nm using a microplate reader.

[2] = LDH cytotoxic activity assay, HT29; settings: human, HT29 cells; for cytotoxicity at 24 h, 25 μg/mL: HT29, 25 μg/mL; for cytotoxicity at 24 h, 50 μg/mL: HT29, 50 μg/mL; for cytotoxicity at 24 h, 75 μg/mL: HT29, 75 μg/mL; for cytotoxicity at 24 h, 100 μg/mL: HT29, 100 μg/mL
Method: as §1, §4

[3] = tested on: A. actinomycetemcomitans ATCC 33384; assay: Microdilution MIC assay; settings: Aggregatibacter actinomycetemcomitans, ATCC33384; A. actinomycetemcomitans ATCC 33384, 24 h at 35 °C
Method: (§5) MIC values of the compounds against bacterial strains were determined on the basis of a microwell dilution method. […] […]. Growth of microorganisms was determined visually after incubation for 24 h at 35 °C. The lowest concentration at which there was no visible growth (turbidity) was taken as the MIC.

E. coli ATCC 25922 = assay: Microdilution MIC assay; settings: Escherichia coli, ATCC25922; E. coli ATCC 25922, 24 h at 35 °C
Method: as §5

E. coli ESBL ATCC 35218 = assay: Microdilution MIC assay; settings: Escherichia coli, ATCC35218; E. coli ESBL ATCC 35218, 24 h at 35 °C
Method: as §5

[4] = tested on: E. faecalis VRE ATCC 19433; assay: Microdilution MIC assay; settings: Enterococcus faecalis; E. faecalis VRE ATCC 19433, 24 h at 35 °C
Method: as §5

[5] = tested on: P. aeruginosa AGME ATCC 27853; assay: Microdilution MIC assay; settings: Pseudomonas aeruginosa, ATCC27853; P. aeruginosa AGME ATCC 27853, 24 h at 35 °C
Method: as §5

S. aureus ATCC 25923 = assay: Microdilution MIC assay; settings: Staphylococcus aureus, ATCC25923, 24 h, S. aureus ATCC 25923, 24 h at 35 °C; read-out: MIC
Method: as §5

[6] = tested on: S. aureus MRSA ATCC 46300; assay: Microdilution MIC assay; settings: Staphylococcus aureus; S. aureus MRSA ATCC 46300, 24 h at 35 °C; read-out: MIC
Method: as §5

[7] = tested on: S. aureus MSSA ATCC 29213; assay: Microdilution MIC assay; settings: S. aureus MSSA ATCC 29213, 24 h at 35 °C
Method: as §5

S. gordonii NCTC 7870 = assay: Microdilution MIC assay; settings: Streptococcus gordonii, NCTC7870; S. gordonii NCTC 7870, 24 h at 35 °C
Method: as §5

S. mutans ATCC 35668 = assay: Microdilution MIC assay; settings: S. mutans ATCC 35668, 24 h at 35 °C
Method: as §5

[8] = Staphylococcus aureus, 24 h, read-out: MIC
[9] = Streptococcus mutans, ATCC35668, 24 h, read-out: MIC

SMILES	LC50 (concentration causing 50% net cell loss) (A549) [µg/mL]	GI50 (A549) [µg/mL]	IC50 (A549) [µg/mL]	IC (total growth inhibition) (A549) [µg/mL]	GI50 (HeLa) [µg/mL]	IC50 (HeLa) [µg/mL]	IC (total growth inhibition) (HeLa) [µg/mL]	LC50 (concentration causing 50% net cell loss) (HeLa) [µg/mL]	LC50 (concentration causing 50% net cell loss) (in vitro) [µg/mL]	GI50 (normal FL cells) [µg/mL]	IC50 (normal FL cells) [µg/mL]	IC (total growth inhibition) (normal FL cells) [µg/mL]	cytotoxicity at 24 h, 25 μg/mL [1] [%]	cytotoxicity at 24 h, 50 μg/mL [1] [%]	cytotoxicity at 24 h, 75 μg/mL [1] [%]	cytotoxicity at 24 h, 100 μg/mL [1] [%]	cytotoxicity at 24 h, 25 μg/mL [2] [%]	cytotoxicity at 24 h, 50 μg/mL [2] [%]	cytotoxicity at 24 h, 75 μg/mL [2] [%]	cytotoxicity at 24 h, 100 μg/mL [2] [%]	other results
CC(=O)OC[C@H]1O[C@@H](Nc2nc(-c3cccnc3)cc(-c3ccccc3C)n2)[C@H](OC(C)=O)[C@@H](OC(C)=O)[C@@H]1OC(C)=O [Compound 11, 2,3,4,6-tetra-O-acetyl-N-[4-(2-methylphenyl)-6-pyridin-3-ylpyrimidin-2-yl]-β-D-glucopyranosylamine]	> 500	> 500	> 500	> 500	> 500	> 500	> 500	> 500	> 500	11.2 (≈ 18.8 µM)	> 500	> 500	17.2	29.8	45	49.8	36.1	49.3	63.8	90.6	MIC [3]: > 1000 µg/mL; MIC (E. coli ATCC 25922): > 1000 µg/mL; MIC (E. coli ESBL ATCC 35218): > 1000 µg/mL; MIC [4]: > 1000 µg/mL; MIC [5]: > 1000 µg/mL; MIC (S. aureus ATCC 25923): > 1000 µg/mL; MIC [6]: 1000 µg/mL (≈ 1690 µM); MIC [7]: 125 µg/mL (≈ 211 µM); MIC [7, 8]: 62.5 to 125 µg/mL (≈ 105 to 211 µM); MIC (S. gordonii NCTC 7870): > 1000 µg/mL; MIC (S. mutans ATCC 35668; [9]): 250 µg/mL (≈ 422 µM)
CC(=O)OC[C@H]1O[C@@H](Nc2nc(-c3ccc(C)cc3)cc(-c3ccccn3)n2)[C@H](OC(C)=O)[C@@H](OC(C)=O)[C@@H]1OC(C)=O [Compound 16, 2,3,4,6-tetra-O-acetyl-N-[4-(4-methylphenyl)-6-pyridin-2-ylpyrimidin-2-yl]-β-D-glucopyranosylamine]	> 500	23.8 (≈ 40.1 µM)	> 500	> 500	1.49 (≈ 2.51 µM)	9.13 (≈ 15.4 µM)	3.28	34.1 (≈ 57.6 µM)	> 500	1.71 (≈ 2.89 µM)	6.31 (≈ 10.6 µM)	6.44	35.7	62.6	77.1	99.2	26.4	34.4	48.6	70.2	MIC [3]: > 1000 µg/mL; MIC (E. coli ATCC 25922): > 1000 µg/mL; MIC (E. coli ESBL ATCC 35218): > 1000 µg/mL; MIC [4]: 1000 µg/mL (≈ 1690 µM); MIC [5]: > 1000 µg/mL; MIC (S. aureus ATCC 25923): > 1000 µg/mL; MIC [6]: > 1000 µg/mL; MIC [7, 8]: 1000 µg/mL (≈ 1690 µM); MIC (S. gordonii NCTC 7870): > 1000 µg/mL; MIC (S. mutans ATCC 35668): 125 µg/mL (≈ 211 µM); MIC (S. mutans ATCC 35668; [9]): 62.5 to 125 µg/mL (≈ 105 to 211 µM)
CC(=O)OC[C@H]1O[C@@H](Nc2nc(-c3ccncc3)cc(-c3ccc(C)cc3)n2)[C@H](OC(C)=O)[C@@H](OC(C)=O)[C@@H]1OC(C)=O [Compound 18, 2,3,4,6-tetra-O-acetyl-N-[4-(4-methylphenyl)-6-pyridin-4-ylpyrimidin-2-yl]-β-D-glucopyranosylamine]	> 500	15.5 (≈ 26.2 µM)	> 500	> 500	1.03 (≈ 1.74 µM)	2.29 (≈ 3.86 µM)	1.29	7.4 (≈ 12.5 µM)	> 500	2.01 (≈ 3.39 µM)	7.46 (≈ 12.6 µM)	7.58	14.2	39	46.1	54.2	27.9	45.5	58.1	82.8	LC50 (normal FL cells; human): 352.27 µg/mL (≈ 594 µM); MIC [3]: > 1000 µg/mL; MIC (E. coli ATCC 25922): > 1000 µg/mL; MIC (E. coli ESBL ATCC 35218): > 1000 µg/mL; MIC [4]: 1000 µg/mL (≈ 1690 µM); MIC [5]: > 1000 µg/mL; MIC (S. aureus ATCC 25923): 500 µg/mL (≈ 844 µM); MIC [6]: 500 µg/mL (≈ 844 µM); MIC [7, 8]: 1000 µg/mL (≈ 1690 µM); MIC (S. gordonii NCTC 7870): > 1000 µg/mL; MIC (S. mutans ATCC 35668): 125 µg/mL (≈ 211 µM); MIC (S. mutans ATCC 35668; [9]): 62.5 to 125 µg/mL (≈ 105 to 211 µM)
CC(=O)OC[C@H]1O[C@@H](Nc2nc(-c3ccc(C)cc3)cc(-c3cccnc3)n2)[C@H](OC(C)=O)[C@@H](OC(C)=O)[C@@H]1OC(C)=O [Compound 17, 2,3,4,6-tetra-O-acetyl-N-[4-(4-methylphenyl)-6-pyridin-3-ylpyrimidin-2-yl]-β-D-glucopyranosylamine]	> 500	7.85 (≈ 13.2 µM)	> 500	> 500	> 500	> 500	> 500	> 500	> 500	17.2 (≈ 29 µM)	> 500	> 500	16.7	23.8	32.4	48.6	21.7	35.8	51	75.7	MIC [3]: > 1000 µg/mL; MIC (E. coli ATCC 25922): > 1000 µg/mL; MIC (E. coli ESBL ATCC 35218): > 1000 µg/mL; MIC [4]: 1000 µg/mL (≈ 1690 µM); MIC [5]: > 1000 µg/mL; MIC (S. aureus ATCC 25923): > 1000 µg/mL; MIC [6]: 1000 µg/mL (≈ 1690 µM); MIC [7]: 125 µg/mL (≈ 211 µM); MIC [7, 8]: 62.5 to 125 µg/mL (≈ 105 to 211 µM); MIC (S. gordonii NCTC 7870): > 1000 µg/mL; MIC (S. mutans ATCC 35668): 125 µg/mL (≈ 211 µM); MIC (S. mutans ATCC 35668; [9]): 62.5 to 125 µg/mL (≈ 105 to 211 µM)
